The values below are quoted from earlier work in US5876715A, “Antibodies that bind novel carbohydrate ligands (myelorollins) that cause E-selectin dependent cell rolling, and uses thereof” (The Biomembrane Institute, priority 1996, dated 1999).

The conditions of series [1]: rat, IgG immune complex lung injury; Mulligan et al. 1993; cited from earlier work.
Series [2] concerns E-selectin expressing CHO cells. The note with it: shear stress of 0.78 dyne/cm^2; J. Immunol. 154:5356-5366 (1995); cited from earlier work.

On to IV^3 NeuAcIII^3 FucnLc4 Cer [SLe^x], for which, in series [1], the “effect against inflammatory vascular injury” value was “provides protective effects against inflammatory vascular injury”. The “tethering of E-selectin expressing CHO cells” value in series [2] is listed as “tethered”.
